Where a name gives a salt, the structure may show the parent alone.

Results on 28 compounds are retold here after ChEMBL document CHEMBL1287706 (Bioorg Med Chem, 2010).

Assay [1] has as its target Sodium-dependent dopamine transporter (Rattus norvegicus, UniProt P23977). Kind of assay: biochemical. It is filed as tissue-based, Sprague-Dawley, Brain.
The target in assay [2] is Sodium-dependent serotonin transporter (Rattus norvegicus, UniProt P31652). The arrangement: species or system Sprague-Dawley.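 Also: radioligand competition using [3H]citalopram bound to serotonin transporter in Sprague-Dawley rat brain tissue, 1 h incubation, bound radioactivity quantified by liquid scintillation counting.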
Description: Displacement of [3H]citalopram from serotonin transporter in Sprague-Dawley rat brain after 1 hr by liquid scintillation counting
In assay [3] the target is Transporter (Rattus norvegicus, UniProt Q63380). Kind of assay: biochemical. It is filed as tissue-based, Sprague-Dawley, Frontal cortex.
Transporter, sequence (Q63380 whole entry): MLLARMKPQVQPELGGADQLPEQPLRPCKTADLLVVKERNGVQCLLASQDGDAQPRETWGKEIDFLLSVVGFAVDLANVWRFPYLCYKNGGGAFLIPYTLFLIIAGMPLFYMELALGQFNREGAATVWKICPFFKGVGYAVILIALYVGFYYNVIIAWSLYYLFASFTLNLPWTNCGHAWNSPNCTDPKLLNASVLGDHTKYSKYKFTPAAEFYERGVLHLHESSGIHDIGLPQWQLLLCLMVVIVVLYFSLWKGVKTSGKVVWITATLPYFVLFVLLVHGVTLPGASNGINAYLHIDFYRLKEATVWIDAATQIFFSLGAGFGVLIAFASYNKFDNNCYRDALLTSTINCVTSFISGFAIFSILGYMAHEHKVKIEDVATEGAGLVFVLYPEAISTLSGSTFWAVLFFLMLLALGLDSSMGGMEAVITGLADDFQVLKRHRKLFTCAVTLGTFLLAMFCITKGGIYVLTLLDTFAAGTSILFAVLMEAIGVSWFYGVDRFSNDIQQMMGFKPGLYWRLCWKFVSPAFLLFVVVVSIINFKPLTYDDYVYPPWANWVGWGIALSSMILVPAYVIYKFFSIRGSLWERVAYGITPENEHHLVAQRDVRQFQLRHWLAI
Description: Displacement of [3H]nisoxetine from norepinephrine transporter in Sprague-Dawley rat frontal cortex after 1 hr by liquid scintillation counting

Sodium-dependent serotonin transporter, sequence (P31652 whole entry): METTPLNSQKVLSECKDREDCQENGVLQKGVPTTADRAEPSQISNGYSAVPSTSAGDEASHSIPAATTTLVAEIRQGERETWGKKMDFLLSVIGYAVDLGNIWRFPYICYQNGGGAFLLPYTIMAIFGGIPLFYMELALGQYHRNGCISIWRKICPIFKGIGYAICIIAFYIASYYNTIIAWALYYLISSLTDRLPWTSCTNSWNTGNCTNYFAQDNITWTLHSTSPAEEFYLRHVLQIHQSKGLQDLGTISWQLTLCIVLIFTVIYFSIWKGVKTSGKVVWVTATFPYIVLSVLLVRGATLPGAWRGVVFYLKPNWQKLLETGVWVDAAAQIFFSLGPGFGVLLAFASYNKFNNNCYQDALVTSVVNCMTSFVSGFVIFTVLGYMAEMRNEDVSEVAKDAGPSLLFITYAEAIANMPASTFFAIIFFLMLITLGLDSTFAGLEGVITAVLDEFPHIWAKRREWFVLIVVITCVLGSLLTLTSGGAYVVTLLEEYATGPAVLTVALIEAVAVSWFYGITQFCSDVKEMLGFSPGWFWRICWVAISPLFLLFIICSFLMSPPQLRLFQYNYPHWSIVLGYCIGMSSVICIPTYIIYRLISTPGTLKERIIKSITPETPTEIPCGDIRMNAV
Sodium-dependent dopamine transporter, sequence (P23977 whole entry): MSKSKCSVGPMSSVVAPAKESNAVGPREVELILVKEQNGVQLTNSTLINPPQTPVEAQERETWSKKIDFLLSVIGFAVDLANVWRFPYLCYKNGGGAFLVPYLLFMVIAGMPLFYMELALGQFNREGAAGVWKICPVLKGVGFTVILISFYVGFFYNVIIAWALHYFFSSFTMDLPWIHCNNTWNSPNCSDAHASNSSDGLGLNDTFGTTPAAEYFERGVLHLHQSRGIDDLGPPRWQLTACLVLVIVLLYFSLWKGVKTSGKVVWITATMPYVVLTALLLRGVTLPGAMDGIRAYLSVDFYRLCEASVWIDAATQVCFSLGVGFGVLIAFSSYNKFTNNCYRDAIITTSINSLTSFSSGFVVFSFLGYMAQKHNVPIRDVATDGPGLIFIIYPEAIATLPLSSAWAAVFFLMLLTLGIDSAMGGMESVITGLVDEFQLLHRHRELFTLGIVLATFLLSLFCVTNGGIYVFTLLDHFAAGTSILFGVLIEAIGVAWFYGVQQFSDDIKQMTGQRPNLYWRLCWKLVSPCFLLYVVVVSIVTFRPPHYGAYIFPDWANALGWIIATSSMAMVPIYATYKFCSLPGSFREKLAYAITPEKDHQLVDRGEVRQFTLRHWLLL

As usually defined, the Ki is a measure of affinity in units of concentration, obtained from inhibition or displacement. Consider `CCOC(=O)C1(c2ccc(I)cc2)CCNCC1`, for which the Ki in assay [1] was determined as 3.5 µM; in assay [2], 0.0025 µM.

In the case of `CN1CCC(C(=O)OCc2ccccc2)(c2ccc(Cl)c(Cl)c2)CC1`, the Ki in assay [1] was determined as 2.97 µM; in assay [2], 0.0039 µM; in assay [3], 0.901 µM.

In the case of `COc1ccc(COC(=O)C2(c3ccc(Cl)c(Cl)c3)CCN(C)CC2)cc1`, the Ki worked out at 2.79 µM in assay [1], 0.0017 µM in assay [2] and 0.3 µM in assay [3].

As to `CN1CCC(C(=O)OCc2ccc([N+](=O)[O-])cc2)(c2ccc(Cl)c(Cl)c2)CC1`, the Ki in assay [1] was 1.53 µM; in assay [2] it was 0.001 µM; in assay [3], 0.333 µM.

Take `CN1CCC(C(=O)OCc2ccc(Cl)c(Cl)c2)(c2ccc(Cl)c(Cl)c2)CC1`: the Ki in assay [1] worked out at 5.23 µM; in assay [2], 0.0043 µM.

`CN1CCC(C(=O)OCc2ccc(Br)cc2)(c2ccc(Cl)c(Cl)c2)CC1`: the Ki in assay [1] amounted to 2.56 µM; in assay [2] it was 0.007 µM; in assay [3], 0.58 µM.

Regarding `CN1CCC(C(=O)OCc2ccc(I)cc2)(c2ccc(Cl)c(Cl)c2)CC1`, the values for the Ki in assay [1] and in assay [2] were 3.47 µM and 0.0132 µM, respectively.

For the compound `CN1CCC(C(=O)OCc2ccc(-c3ccccc3)cc2)(c2ccc(Cl)c(Cl)c2)CC1`, the Ki amounted to 5.63 µM in assay [1] and 0.0109 µM in assay [2].

With `CN1CCC(C(=O)OCc2ccccc2)(c2ccc(-c3ccccc3)cc2)CC1`, the Ki in assay [1] was 2.31 µM; in assay [2] it was 0.0495 µM.

On to `O=C(OCc1ccccc1)C1(c2ccc(Cl)c(Cl)c2)CCNCC1`, for which the Ki in assay [1] came out at 0.919 µM; in assay [2], 0.0092 µM.

In the case of `COc1ccc(COC(=O)C2(c3ccc(Cl)c(Cl)c3)CCNCC2)cc1`, the Ki turned out to be 1.26 µM in assay [1], 0.0102 µM in assay [2] and 3.13 µM in assay [3].

Consider `O=C(OCc1ccc([N+](=O)[O-])cc1)C1(c2ccc(Cl)c(Cl)c2)CCNCC1`, for which the Ki in assay [1] worked out at 1.29 µM; in assay [2] it was 0.0064 µM; in assay [3] it was 1.44 µM.

For the compound `O=C(OCc1ccc(Cl)c(Cl)c1)C1(c2ccc(Cl)c(Cl)c2)CCNCC1`, the Ki was 2.89 µM in assay [1], 0.0302 µM in assay [2] and 11.9 µM in assay [3].

As to `O=C(OCc1ccc(C(F)(F)F)cc1)C1(c2ccc(Cl)c(Cl)c2)CCNCC1`, the values for the Ki in assay [1], in assay [2] and in assay [3] were 2.24 µM, 0.0467 µM and 7.9 µM, respectively.

For `O=C(OCc1ccccc1)C1(c2ccc(-c3ccccc3)cc2)CCNCC1`, the Ki in assay [1] was 1.11 µM; in assay [2], 0.002 µM.

Regarding `COc1ccc(COC(=O)C2(c3ccc(I)cc3)CCNCC2)cc1`, the Ki amounted to 2.92 µM in assay [1], 0.0006 µM in assay [2] and 2.73 µM in assay [3].

Turning to `O=C(OCc1ccc([N+](=O)[O-])cc1)C1(c2ccc(I)cc2)CCNCC1`, the values for the Ki in assay [1], in assay [2] and in assay [3] were 1.78 µM, 0.0059 µM and 2.07 µM, respectively.

As to `O=C(OCc1ccc(Cl)c(Cl)c1)C1(c2ccc(I)cc2)CCNCC1`, the figures for the Ki in assay [1], in assay [2] and in assay [3] were 4.34 µM, 0.0059 µM and 6.06 µM, respectively.

Take `COc1ccc(COC(=O)C2(c3ccc4ccccc4c3)CCNCC2)cc1`: the Ki in assay [1] was found to be 0.889 µM; in assay [2], 0.0029 µM; in assay [3], 2.35 µM.

As for `O=C(OCc1ccc([N+](=O)[O-])cc1)C1(c2ccc3ccccc3c2)CCNCC1`, the Ki was 0.732 µM in assay [1], 0.002 µM in assay [2] and 0.937 µM in assay [3].

Turning to `O=C(OCc1ccc(Cl)c(Cl)c1)C1(c2ccc3ccccc3c2)CCNCC1`, the Ki in assay [1] stood at 3.21 µM; in assay [2] it was 0.0265 µM; in assay [3], 16.6 µM.

As to `CN1CCC(C(=O)OCc2ccc3ccccc3c2)(c2ccc(Cl)c(Cl)c2)CC1`, the inhibition constant Ki in assay [1] amounted to 4.91 µM; in assay [2], 0.0099 µM; in assay [3], 2.55 µM.

As to `CCOC(=O)C1(c2ccc(Cl)c(Cl)c2)CCNCC1`, the Ki worked out at 0.321 µM in assay [1] and 0.0216 µM in assay [2].

Regarding `CCOC(=O)C1(c2ccc(-c3ccccc3)cc2)CCNCC1`, the Ki in assay [1] was determined as 3.21 µM; in assay [2] it was 0.0033 µM.

Turning to `CCOC(=O)C1(c2ccc3ccccc3c2)CCNCC1`, the Ki in assay [1] is 0.71 µM; in assay [2], 0.0141 µM.

`CCOC(=O)C1(c2ccc(I)cc2)CCN(C)CC1` returned a Ki in assay [3] of 519 µM.

Regarding `CCOC(=O)C1(c2ccc3ccccc3c2)CCN(C)CC1`, the Ki in assay [3] was determined as 71 µM.

Take `Fc1ccc([C@@H]2CCNC[C@H]2COc2ccc3c(c2)OCO3)cc1` [PAROXETINE HYDROCHLORIDE]: the Ki in assay [3] came to 0.059 µM.
